According to PubChem BioAssay AID2060508 (Molecular Pharmacology Branch, DTP, NCI, 2025):
pIC50: −log10 of the molar value.

Test system: 454973-116-R2-J3-PDC spheroids, viability, % test/control
Experiment: Anticancer human tumor 454973-116-R2-J3-PDC patient-derived pancreatic carcinoma cell line growth inhibition [GQUAD]
Conditions: spheroids with HUVEC and MSC; for pIC50: curve of first compound; for viability, T/C: stronger effect = lower value
Description: DNA G-quadruplex Stabilizer Agents in Combinations in Complex Spheroids
A high-throughput screen of multi-cell type tumor spheroids was designed to identify active combinations of DNA G-quadruplex stabilizer agents and targeted small molecules. Complex spheroids include a stromal component modeled by human endothelial cells (HUVEC) and fibroblasts modeled by human mesenchymal stem cells (MSCs). The concentration ranges selected for each drug and investigational agent were based upon clinically achievable concentrations if the clinical Cmax of the agent was known.
Compounds. The drugs and investigational agents: pidnarulex (CX-5461; NSC782164), APTO-253 (NSC789042), BRACO-19 (NSC847499), peposertib (NSC802822), ceralasertib (NSC780249), elimusertib (NSC800525), camonsertib (NSC841442), AZD-1390 (NSC803789), olaparib (NSC753686), talazoparib (NSC767125), ART-558 (NSC835418), sotorasib (NSC818433), MRTX-1133 (NSC836407), SN-38 (NSC673596), topotecan (NSC609699), etoposide (NSC141540), doxorubicin (NSC123127), gemcitabine (NSC613327), 5-fluorouracil (NSC19893), paclitaxel (NSC125973), vemurafenib (NSC761431), panobinostat (NSC761190), R-306465 (JNJ-16241199; NSC773264), adavosertib (NSC754352), TP-3654 (NSC805149), carboplatin (NSC241240), KSQ-4279 (NSC840948), and staurosporine (NSC755774) were obtained from the National Cancer Institute (NCI) Developmental Therapeutics Program Chemical Repository (34). The FDA-approved anticancer drug set is available from the NCI Developmental Therapeutics Program. […] The stock solutions were prepared in dimethyl sulfoxide (DMSO, Sigma-Aldrich, St. Louis, MO, cat. D2650) at 800-fold the tested concentration and stored at -70 degrees C prior to their use. All drugs and investigational agents were tested over a range starting from a high concentration at or near the clinical Cmax and decreasing in half-log increments. If the clinical Cmax for an agent had not been determined, the highest concentration tested was 10 microM.
2.3 Cell Culture. All cells were maintained in an incubator at 37 degrees C and 5% CO2 with 95% humidity. The PDC lines were cultured according to standard operating procedures established by the NCI PDMR. All PDCs were thawed and cultured in Matrigel-coated flasks prepared with a working solution of 1X Ham's F-12 nutrient mix, without supplementation (Invitrogen, cat. 11765054), 100 U/mL penicillin-streptomycin (Invitrogen, cat. 15140122), and 2.5% Matrigel (Corning Inc., cat. 354248) for the first three passages. The 857933-349-R-J2-PDC line was cultured in 6C/Colon 1B media, which includes advanced DMEM/F-12 (Thermo Fisher Scientific, cat. 12634028), 10 mM HEPES (Thermo Fisher Scientific, cat. 15630080), 1X GlutaMAX supplement (Thermo Fisher Scientific, cat. 35050061), 0.1 mg/mL primocin (InvivoGen, cat. ant-pm-2), 10% defined fetal bovine serum, heat inactivated (HyClone Laboratories Inc., cat. SH30070.03HI), 50% L-WRN conditioned media (ATCC, cat. CRL-3276), 1.25 mM N-Acetyl-L-cysteine (Sigma-Aldrich, cat. A9165), 10 mM nicotinamide (Sigma-Aldrich, cat. N0636), 1X B-27 supplement (Thermo Fisher Scientific, cat. 17504044), 1X N-2 supplement (Thermo Fisher Scientific, cat. 17502048), 10 microM Y-27632 dihydrochloride (Tocris Bioscience, cat. 1254), and 50 ng/mL human EGF recombinant protein (Thermo Fisher Scientific, cat. PHG0311). The 485176-168-R4-J1-PDC line was cultured in Panc media, which includes all 6C/Colon 1B media components plus 100 ng/mL human FGF-10 (Thermo Fisher Scientific, cat. 100-26), 500 nM SB-431542 (Selleckchem, cat. S1067), and gastrin (Tocris, cat. 3006).
[…]
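Also: spheroids exposed to compounds for seven days.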

Which results are given for `CCc1c2c(nc3ccc(O)cc13)-c1cc3c(c(=O)n1C2)COC(=O)[C@]3(O)CC` + CN(C)c1ccc(Nc2c3ccc(NC(=O)CCN4CCCC4)cc3nc3cc(NC(=O)CCN4CCCC4)ccc23)cc1?
pIC50 (second compound 0.0316 µM): 8.78; pIC50 (second compound 0.1 µM): 8.77; pIC50 (second compound 0.316 µM): 8.82; pIC50 (second compound 1 µM): 8.77; pIC50 (second compound 3.16 µM): 8.79; pIC50 (second compound 10 µM): 8.83; viability, T/C (second compound 0.0316 µM, first compound 0.000999 µM): 67.9%; viability, T/C (second compound 0.0316 µM, first compound 0.00316 µM): 23.9%; viability, T/C (second compound 0.0316 µM, first compound 0.00999 µM): 21.6%; viability, T/C (second compound 0.0316 µM, first compound 0.0316 µM): 15.2%; viability, T/C (second compound 0.0316 µM, first compound 0.0999 µM): 6.24%; viability, T/C (second compound 0.0316 µM, first compound 0.316 µM): 5.45%; viability, T/C (second compound 0.1 µM, first compound 0.000999 µM): 68.1%; viability, T/C (second compound 0.1 µM, first compound 0.00316 µM): 25.9%; viability, T/C (second compound 0.1 µM, first compound 0.00999 µM): 21.8%; viability, T/C (second compound 0.1 µM, first compound 0.0316 µM): 14.1%; viability, T/C (second compound 0.1 µM, first compound 0.0999 µM): 6.39%; viability, T/C (second compound 0.1 µM, first compound 0.316 µM): 4.95%; viability, T/C (second compound 0.316 µM, first compound 0.000999 µM): 61.4%; viability, T/C (second compound 0.316 µM, first compound 0.00316 µM): 27.2%; viability, T/C (second compound 0.316 µM, first compound 0.00999 µM): 22.3%; viability, T/C (second compound 0.316 µM, first compound 0.0316 µM): 12.3%; viability, T/C (second compound 0.316 µM, first compound 0.0999 µM): 7.81%; viability, T/C (second compound 0.316 µM, first compound 0.316 µM): 5.5%; viability, T/C (second compound 1 µM, first compound 0.000999 µM): 65.6%; viability, T/C (second compound 1 µM, first compound 0.00316 µM): 27.5%; viability, T/C (second compound 1 µM, first compound 0.00999 µM): 23.8%; viability, T/C (second compound 1 µM, first compound 0.0316 µM): 11.9%; viability, T/C (second compound 1 µM, first compound 0.0999 µM): 8.79%; viability, T/C (second compound 1 µM, first compound 0.316 µM): 5.09%; viability, T/C (second compound 3.16 µM, first compound 0.000999 µM): 62.5%; viability, T/C (second compound 3.16 µM, first compound 0.00316 µM): 30.7%; viability, T/C (second compound 3.16 µM, first compound 0.00999 µM): 24.4%; viability, T/C (second compound 3.16 µM, first compound 0.0316 µM): 13.8%; viability, T/C (second compound 3.16 µM, first compound 0.0999 µM): 11.1%; viability, T/C (second compound 3.16 µM, first compound 0.316 µM): 5.7%; viability, T/C (second compound 10 µM, first compound 0.000999 µM): 59.1%; viability, T/C (second compound 10 µM, first compound 0.00316 µM): 31.2%; viability, T/C (second compound 10 µM, first compound 0.00999 µM): 24.9%; viability, T/C (second compound 10 µM, first compound 0.0316 µM): 19.7%; viability, T/C (second compound 10 µM, first compound 0.0999 µM): 12.6%; viability, T/C (second compound 10 µM, first compound 0.316 µM): 9.24%
